Assay results as given in patent US8668937B2, “Topical nitric oxide systems and methods of use thereof” (Transdermal Biotechnology, Inc., priority 2011, dated 2014).
“Also recorded” adds a separate entry of the source.

Test: Nitric oxide gas bubbled through carrier, change in weight noted
Type: physicochemical
Details: 25 °C
Protocol: This example illustrates one technique for preparing a composition in accordance with one embodiment of the invention. An accurate amount of a carrier (HNC 167-62) (see below) was introduced into a system. The carrier weight used in these experiments was approximately 250 g and the vessel size was 500 ml. The vessel was equipped with a mechanical stirrer, gas inlet, and gas outlet and was previously purged with argon for about an hour. The temperature of the carrier was kept at about 25-30° C. NO gas regulated at 5 psi (1 psi is about 6,900 Pa) and was then introduced at a controlled rate of about 1 bubble/s with continuous stirring. […] After 6 hours, the weight of the carrier had increased by 0.15%, by 12 hours by 0.25%, and by 24 hours by 0.56%. These increases in weight were believed to be significant considering the relative small molecular weight of NO versus the carrier. […] The carrier also can solidify upon cooling if the carrier is initially a solid at lower temperature.
Each carrier was taken in a 500 mL three necked flask equipped with a mechanical stirrer, gas inlet and a gas outlet. The system was purged with argon for one hour at room temperature (25° C.). Then nitric oxide gas was bubbled into the system. Then, nitric oxide gas was bubbled through carrier for stipulated amount of time. The changes in weight and color were noted. The details of individual experiments were as follows.

OCCCO [1,3-Propanediol, 1,3-propanediol]
% Wt. gain (NO gas bubbled 40 hr): 0.09%
Wt. Gain g (NO gas bubbled 40 hr): 0.16 g
weight gain when NO was passed through (in words) (neat, NO gas bubbled 40 hours): only negligible, if any, weight gain; also recorded: failed to gain any significant weight
